Results taken from patent US8809303B2, “Methods of regulating actin cytoskeletal rearrangement and intercellular gap formation” (The University of North Carolina at Chapel Hill, priority 2008, dated 2014).

How the values were obtained:
Type in all cases: cell-based
[1] = tested on: human pulmonary microvascular endothelial cells (HMVECs); assay: Cell culture model of warm lung IRI: simulated warm ischemia and reperfusion, phalloidin staining and image analysis; settings: 1 μg/mL CRX-526 vs vehicle
Procedure: An in vitro normothermic (37° C.) model of IRI employing nutrient depletion in 100% oxygen to model ischemia was developed, with reperfusion modeled by supplying fresh medium to culture dishes in sealed PLEXIGLAS® containers. Human pulmonary microvascular endothelial cells (HMVECs) (Cambrex Bio Science, Walkersville, Md., United States of America) maintained in CLONETICS® EGM-2MV BULLETKITS® (Cambrex Bio Science, Walkersville, Md., United States of America), at 37° C. in a humidified incubator in 5% CO2 were seeded at 2000 cells/cm^2 on collagen-coated 30 mm diameter glass bottom dish coverslips (Mattek Corp., Ashland, Mass., United States of America) and grown until 100% confluent. Sealed PLEXIGLAS® containers housing culture dishes at 37° C. were ventilated with 95% O2/5% CO2. To model warm ischemia (WI), cell medium was suddenly replaced with 2 mL nutrient-depleted, pyrogen-free clinical grade Ringer's lactate. Dishes were pre-treated with 1 μg/mL CRX-526 (GlaxoSmithKline, Duluth, Minn., United States of America) or vehicle (2% glycerin), one hour before WI. CRX-526 or vehicle was added whenever medium was changed. After 1 hour of simulated WI, Ringer's lactate was replaced with EGM2-MV pyrogen-free medium to simulate reperfusion, ventilating the chamber with 5% CO2 in room air. Dishes were removed in triplicate during WI and reperfusion, and immediately fixed in 4% paraformaldehyde for phalloidin staining. Cells with inhibitor or vehicle maintained in EGM2-MV medium at 37° C. in humidified 5% CO2 incubator served as controls. Culture medium was changed at the same time that medium was changed in experimental dishes. Probes inserted through sealed ports continuously recorded temperature, and pH in a representative dish in the PLEXIGLAS® box using voltmeters with data output recorded by PicoRecorded software (Pico Technology, St. Neots, United Kingdom).
HMVECs were fixed in 4% paraformaldehyde for 10 minutes at room temperature and washed 3 times with PBS. Cells were incubated for 1 hour with a 1/100 dilution of ALEXAFLOR® 568 phalloidin (Invitrogen, Carlsbad, Calif., United States of America) in PBS with 1% BSA and 0.05% Tween-20. Coverslips stained for F-actin were immediately examined with a Leica DMIRB Inverted Fluorescence/DIC microscope (Leica Microsystems, Inc., Bannockburn, Ill., United States of America) at 20× and 40× magnification to evaluate changes in cell shape and F-actin cytoskeleton. For each dish, three pictures were taken of contiguous fields near the center of the dish at 40× with a Kodak (Rochester, N.Y., United States of America) digital camera at the same exposure time. A masked observer assessed actin stress fiber pattern of each cell as normal or abnormal. Quantitative analysis of gap area was performed using METAMORPH® software (MDS Analytical Technologies, Inc., Sunnyvale, Calif., United States of America).
As described in Example 1, HMVECs grown to confluence on P30 dishes with integral cover slips were incubated with 1 μg/mL CRX-526 or vehicle, ventilated with 95% O2/5% CO2. Media was replaced with warm (37° C.)
Ringer's lactate and ventilated with 100% O2 to simulate warm ischemia. One hour later, Ringer's lactate was replaced with warm cell culture media, and chambers were ventilated with 95% room air/5% CO2 to simulate reperfusion. […]

[2] = tested on: human pulmonary microvascular endothelial cells (HMVECs); assay: Determination of viability for cell culture experiments (LDH activity, CytoTox96 assay) during simulated IRI; settings: controls vs treated groups, all time points of simulated IRI
Procedure: In separate experiments performed in triplicate, HMVECs grown to confluence on P35 dishes underwent simulated IRI. At the same time points, cells and cell culture media or Ringer's lactate were assessed for lactate dehydrogenase (LDH) activity using the CytoTox96 Non-Radioactive Cytotoxicity Assay (Promega, Madison, Wis., United States of America) following the manufacturer's instructions. Control samples were also taken at time zero and 24 hours to assess cell viability apart from the experimental model. Culture medium and Ringer's lactate were used as background controls to normalize the absorbance value from the other samples. Cytotoxicity was calculated as media LDH activity divided by total LDH activity (cell pellet plus media). Viability was the inverse and expressed as percent viability at each time point.

[3] = tested on: human pulmonary microvascular endothelial cells (HMVECs); assay: Simulated cold IRI: cold ischemia in 4° C. PERFADEX, gaps in monolayer; settings: CRX-526 pre-incubation; 4 hours of cold ischemia in 4° C. PERFADEX; FIG. 2A, 2B
Procedure: FIG. 2A is a series of photographs of (from left to right) human pulmonary microvascular endothelial cells (HMVECs) in warm (37° C.) cell culture media (Control), of HMVECs after four hours of cold ischemia (CI) in 4° C. cell culture media (Media 4 hr CI), of HMVECs after four hours of cold ischemia in 4° C. PERFADEX™ (Vitrolife, Kungsbacka, Sweden) pulmonary preservation solution (Vehicle 4 hr CI), and of HMVECs that had been pre-incubated with CRX-526 and undergone four hours of cold ischemia in 4° C. PERFADEX™ (Vitrolife, Kungsbacka, Sweden) with CRX-526 (CRX-526 4 hr CI). The photographs are representative of 9 images taken for each set of conditions.
FIG. 2B is a graph of the % area of gaps in the monolayer of human pulmonary microvascular endothelial cells (HMVECs) in cell culture media (Media), vehicle (i.e., PERFADEX™ (Vitrolife, Kungsbacka, Sweden)) or in vehicle after a 1 hour pre-treatment with CRX-526 and following either four hours of cold ischemia (4 hr CI), 1 hour of warm ischemia (WI), or following 1 hour of warm ischemia and 15 min, 1 hr, or 4 hr of reperfusion (15 min rep, 1 hr rep, and 4 hr rep, respectively). Data for the HMVECs in cell culture media without vehicle is shown in the open bars. […] The % gap area was quantified by MetaMorph® software (MDS Analytical Technologies, Inc., Sunnyvale, Calif., United States of America). *=p<0.01. […]

For `CCCCCCCCCCC[C@H](CC(=O)N[C@H]1[C@H](OC[C@H](NC(=O)C[C@@H](CCCCCCCCCCC)OC(=O)CCCCC)C(=O)O)O[C@H](CO)[C@@H](OP(=O)(O)O)[C@@H]1OC(=O)C[C@@H](CCCCCCCCCCC)OC(=O)CCCCC)OC(=O)CCCCC` [CRX-526], the “peripheral orientation of actin” value ([1]; after 15 minutes simulated reperfusion, FIG. 1C) was “significantly reduced”, the “recovery of monolayer confluence” value ([1]; after simulated reperfusion, FIG. 1B) was “regained confluence more quickly” and the “area of monolayer gaps” value ([1]; during simulated warm ischemia, FIG. 1B) was “significantly reduced”. The “peripheral orientation of actin” value ([1]; following 60 minutes of WI, FIG. 1C) was “significantly reduced”, the “percentage of cells with altered actin cytoskeleton” value ([1]; monolayers in simulated warm IRI, FIG. 1C) was “decreased” and the “cell viability, quantified by LDH assay” value [2] was “equivalent”. For the same compound, the gaps in monolayer [3] was “much less obvious”.
